Test results taken from article PMC5078010 (Oncotarget, 2016).
Entries after “also recorded” stand apart in the source; their conditions may differ. FAM = carboxyfluorescein

Tests used:
HDM2 K36E (1-125) / p53 = assay: In vitro pull-down, K36E; format: binding, human; conditions: HDM2 (1-125) K36E
Method: (§3) Protein G beads were incubated with anti-HA (1μg per 10μL beads) for 1 hour in PBST-3%BSA and subsequently washed thrice in PBST-0.1%BSA. IVT-expressed protein was incubated with the beads on a rotator for 30 mins. […] IVT-containing secondary protein was added to the mixture and incubation allowed for 1 hour. Beads were finally washed thrice in PBST-0.1%BSA and thrice with PBS, and bound proteins eluted by resuspension in 20μL SDS-PAGE loading buffer and incubation at 95 °C for 5 minutes. Where required, blank IVT extract (no template DNA added) was used as control. The eluates were subjected to electrophoresis, transferred to nitrocellulose membranes and probed for p53 with DO1-HRP or for HDM2 with anti-HA antibody followed by rabbit anti-mouse (Dakocytomation). Image acquisition was carried out using either film or digitally (Odyssey FC, Li-Cor).

[1] = tested on: wild-type HDM2 (full-length) / p53 in p53/MDM2-null DKO cells; assay: p53 reporter assay in DKO cells, WT HDM2; format: cell-based, mouse; conditions: for p53 activity: percentage of p53-alone, ~ 6% without inhibitor
Method: (§1) Mouse embryonic fibroblast p53/Mdm2 double-knockout (DKO) cells (a kind gift from Guillermina Lozano) were maintained in Dulbecco's modified Eagle's medium (DMEM) with 10% (v/v) foetal calf serum (FCS) and 1% (v/v) penicillin/streptomycin. The cells were seeded at 1.0 × 10^5 cells/well in 6-well plates, 24 hours prior to transfection. Cells were co-transfected with parental or individual PM2-resistant HDM2 plasmid, p53-pcDNA plasmid, LacZ reporter plasmid and luciferase transfection efficiency plasmid using TurboFect transfection reagent (Thermo Scientific) according to the manufacturer's instructions. […] In all cases, the total amount of plasmid DNA transfected per well was equilibrated by addition of the parental vector pcDNA3.1a (+).
(§2) DKO cells were harvested 24hours post transfection and β-galactosidase activities were assessed using the Dual-light System (Applied Biosystems) according to the manufacturer's protocol. β-galactosidase activity was normalized with luciferase activity for each sample. To check for expression levels of relevant proteins via western blot, 5 μg of the cell lysates were probed for p53 with horseradish peroxidase conjugated DO1 antibody, for HDM2 and actin with anti-HA antibody and AC15 antibody respectively followed by rabbit anti-mouse.

[2] = tested on: HDM2 L34P (residues 1-125) / p53; assay: In vitro pull-down, L34P; parameters: species or system human; conditions: PM2 10 μM; N-terminal point mutant L34P; reduced p53 binding
Method: as §3

[3] = tested on: HDM2 L34P (full length) / p53 in p53/MDM2-null DKO cells; assay: p53 reporter assay in DKO cells, L34P; format: cell-based, mouse; conditions: knockdown of p53 activity decreased ~7 fold vs WT
Method: Mouse embryonic fibroblast p53/Mdm2 double-knockout (DKO) cells (a kind gift from Guillermina Lozano) [58] were maintained in Dulbecco's modified Eagle's medium (DMEM) with 10% (v/v) foetal calf serum (FCS) and 1% (v/v) penicillin/streptomycin. The cells were seeded at 1.0 × 10^5 cells/well in 6-well plates, 24 hours prior to transfection. […] In all cases, the total amount of plasmid DNA transfected per well was equilibrated by addition of the parental vector pcDNA3.1a (+).

[4] = tested on: HDM2-F55L (residues 7-134, RFP fusion) / p53 (residues 1-81, GFP fusion) in F2H-BHK cells; assay: Fluorescent two-hybrid (F2H) co-localization assay; format: cell-based; conditions: PM2 0-50 μM, 6-8 hours, serum-free DMEM, 37°C; n=2
[5] = tested on: HDM2 P89S (residues 1-125) / p53; assay: In vitro pull-down, P89S; parameters: species or system human; conditions: PM2 10 μM; N-terminal point mutant P89S; p53 binding retained
Method: as §3

[6] = tested on: HDM2 P89S (full length) / p53 in p53/MDM2-null DKO cells; assay: p53 reporter assay in DKO cells, P89S; format: cell-based, mouse; conditions: PM2
Method: as §1, §2

[7] = tested on: HDM2-C8 (full-length) / p53 in p53/MDM2-null DKO cells; assay: p53 reporter assay in DKO cells, HDM2-C8; format: cell-based, mouse
Method: as §1, §2

[8] = tested on: HDM2 I99V (residues 1-125) / p53; assay: In vitro pull-down, I99V; parameters: species or system human; conditions: PM2 10 μM; N-terminal point mutant I99V; p53 binding retained
Method: as §3

[9] = tested on: HDM2-C8 (residues 1-125), M62A reverted / p53; assay: In vitro pull-down, C8 with M62A reverted; format: binding, human
Method: as §3

[10] = tested on: HDM2 Y67H (N-terminal domain) / p53; assay: In vitro pull-down, Y67H; format: binding, human; conditions: N-terminal point mutant Y67H
Method: as §3

HDM2 F55A (1-125) / p53 = assay: In vitro pull-down, F55A; format: binding, human; conditions: HDM2 (1-125) F55A
Method: as §3

[11] = tested on: HDM2 I99V (full length) / p53 in p53/MDM2-null DKO cells; assay: p53 reporter assay in DKO cells, I99V; format: cell-based, mouse; conditions: knockdown reduced ~[…] vs WT
Method: as §1, §2

[12] = tested on: WT and indicated HDM2 (1-125) single and double point mutants / p53; assay: In vitro pull-down, Fig. S3; format: binding, human
Method: as §3

[13] = tested on: WT and indicated C11/C12-derived HDM2 (1-125) mutants / p53; assay: In vitro pull-down, Fig. S1B; format: binding, human
Method: as §3

[14] = tested on: HDM2 variant C12 (residues 1-125) / p53; assay: In vitro pull-down, selectant C12; format: binding, human; conditions: PM2 10 μM; HDM2 residues 1-125
Method: as §3

[15] = tested on: HDM2 Y60C (full length) / p53 in p53/MDM2-null DKO cells; assay: p53 reporter assay in DKO cells, Y60C; format: cell-based, mouse; conditions: knockdown of p53 activity decreased ~7 fold vs WT
Method: as §1, §2

[16] = tested on: WT and indicated C8-derived HDM2 (1-125) point mutants / p53; assay: In vitro pull-down, Fig. S1A; format: binding, human
Method: as §3

[17] = tested on: HDM2 F55L (full length) / p53 in p53/MDM2-null DKO cells; assay: p53 reporter assay in DKO cells, F55L; format: cell-based, mouse; conditions: knockdown reduced ~[…] vs WT
Method: as §1, §2

[18] = tested on: HDM2 C77R (residues 1-125) / p53; assay: In vitro pull-down, C77R; format: binding, human; conditions: N-terminal point mutant C77R
Method: as §3

[19] = tested on: HDM2 Y60C (residues 1-125) / p53; assay: In vitro pull-down, Y60C; parameters: species or system human; conditions: PM2 10 μM; N-terminal point mutant Y60C; reduced p53 binding
Method: as §3

[20] = tested on: HDM2 F55L (residues 1-125) / p53; assay: In vitro pull-down, F55L; parameters: species or system human; conditions: PM2 10 μM; N-terminal point mutant F55L; p53 binding retained
Method: as §3

HDM2 Y48C (1-125) / p53 = assay: In vitro pull-down, Y48C; format: binding, human; conditions: HDM2 (1-125) Y48C
Method: as §3

[21] = tested on: C8-derived point mutants in full-length HDM2 / p53; assay: In vitro pull-down, full-length point mutants; format: binding, human; conditions: PM2 10 μM; full-length HDM2, mutations displaying the PM2-resistant phenotype
Method: as §3

[22] = tested on: HDM2 V108A (N-terminal domain) / p53; assay: In vitro pull-down, V108A; format: binding, human; conditions: N-terminal point mutant V108A
Method: as §3

[23] = tested on: HDM2 variant C11 (residues 1-125) / p53; assay: In vitro pull-down, selectant C11; format: binding, human; conditions: PM2 10 μM; HDM2 residues 1-125
Method: as §3

[24] = tested on: HDM2 variant C8 (residues 1-125) / p53; assay: In vitro pull-down, selectant C8; format: binding, human; conditions: PM2 10 μM; HDM2 residues 1-125
Method: as §3

HDM2 M62A = conditions: M62A mutation; earlier selection of Nutlin-resistant HDM2; cited from earlier work
HDM2 L82P = conditions: at the cost of reduced p53 binding; cited from earlier work
Description: The crystal structure of the stapled peptide M06 bound to HDM2-M62A was recently described. […] The side chains of L34 and Y60 pack against numerous hydrophobic residues contributing to the p53-binding hydrophobic cleft (Figure 8). Mutations to less bulky residues (P and C respectively) likely result in altered struc ...

[25] = tested on: xenograft tumours in mice; p53; parameters: method as in PMID 25145672, PMID 26070072; conditions: cited from earlier work
[26] = biological target: T1, HDM2 (amino acids 1-125), recombinant (human, UniProt Q00987 1-125); assay: fluorescence polarisation; competitive fluorescence anisotropy, apparent Kd; PM2 or p53 peptide titrated against wild-type HDM2 at 150 nM or HDM2-F55L at 200 nM with 50 nM FAM-12-1 peptide; PBS pH 7.4, 3% DMSO, 0.1% Tween-20; conditions: both partners purified
T1 construct: also called WT HDM2; source: E. coli BL21(DE3) pLysS, purified (GSTrap, on-column PreScission cleavage, Resource S cation exchange)

[27] = biological target: T2, HDM2-F55L (amino acids 1-125), recombinant (human, UniProt Q00987 1-125, F55L); assay: as above; conditions: both partners purified
T2 construct: also called mutant HDM2-F55L; source: E. coli BL21(DE3) pLysS, purified (GSTrap, on-column PreScission cleavage, Resource S cation exchange)
T2 sequence (Q00987 1-125 F55L): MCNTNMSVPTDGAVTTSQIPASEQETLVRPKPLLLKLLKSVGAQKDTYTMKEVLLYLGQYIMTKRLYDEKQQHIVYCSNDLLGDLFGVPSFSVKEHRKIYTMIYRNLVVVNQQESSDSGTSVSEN

T1 sequence (Q00987 1-125): as the sequence (Q00987 1-125 F55L) above, with L55F counted along it

## CC(=O)N[C@H](C(=O)N[C@@H](CO)C(=O)N[C@@H](Cc1ccccc1)C(=O)N[C@]1(C)CCCCCCC=CCCC[C@@](C)(C(N)=O)NC(=O)[C@H](CC(C)C)NC(=O)[C@H](CC(C)C)NC(=O)[C@H](C)NC(=O)[C@H](Cc2c[nH]c3ccccc23)NC(=O)[C@H](Cc2ccc(O)cc2)NC(=O)[C@H](CCC(=O)O)NC1=O)[C@@H](C)O [PM2]
HDM2 K36E (1-125) / p53
  resistance phenotype (p53 pull-down): Only the L54P mutation showed an exceptionally weak resistance phenotype
[1]; PM2 20 μM
  p53 activity: ~ 26%
[1]; comparison with F55L and I99V (Figures 6B, 6C)
  magnitude of rescue of p53 activity by PM2: ~ 4 fold
[2]
  PM2 resistance (inhibition of p53 pull-down): clearly resistant to PM2 binding
[3]
  rescue of p53 activity by PM2: no rescue observed
[4]
  inhibition of p53-HDM2 F55L interaction compared to WT: no significant difference compared to WT for inhibition
[5]
  PM2 resistance (inhibition of p53 pull-down): showed weak resistance to PM2
[6]
  behaviour in p53 reporter assay: essentially behaved like wild-type HDM2
[7]; PM2 20 μM
  increase in p53 activity on addition of PM2: did not result in any significant increase in p53 activity
[8]
  PM2 resistance (inhibition of p53 pull-down): showed weak resistance to PM2
[9]
  PM2 resistance after reversion of M62A in C8: little impact upon reversion of the M62A mutation to PM2 binding in HDM2-C8; also recorded: reversion of this mutation in the C8 selectant did not alter the phenotype
[10]
  PM2 resistance (inhibition of p53 pull-down): showed no PM2-resistance phenotype
HDM2 F55A (1-125) / p53
  effect of F55A on interaction with p53 or PM2: make little difference towards interaction with p53 or PM2
[11]
  magnitude of rescue of p53 activity by PM2: ~ 3.2 fold
[12]
  PM2 inhibition of p53 pull-down: no significant reduction in PM2 inhibition
[13]
  PM2 inhibition of p53 pull-down: no significant reduction in PM2 inhibition
[14]
  PM2 resistance (inhibition of p53 pull-down): appeared significantly resistant to PM2, with little or no reduction in their interaction with p53 in the presence of PM2
[15]
  rescue of p53 activity by PM2: no rescue observed
[16]
  PM2 inhibition of p53 pull-down: no significant reduction in PM2 inhibition
[17]
  magnitude of rescue of p53 activity by PM2: ~ 3.2 fold
[18]
  PM2 resistance (inhibition of p53 pull-down): showed no PM2-resistance phenotype
[19]
  PM2 resistance (inhibition of p53 pull-down): clearly resistant to PM2 binding
[20]
  PM2 resistance (inhibition of p53 pull-down): showed weak resistance to PM2
HDM2 Y48C (1-125) / p53
  resistance phenotype (p53 pull-down): Only the L54P mutation showed an exceptionally weak resistance phenotype
[21]
  PM2 resistance (inhibition of p53 pull-down): reduced inhibition by PM2; also recorded: behaved similarly when introduced as point mutants into full-length HDM2
[22]
  PM2 resistance (inhibition of p53 pull-down): showed no PM2-resistance phenotype
[23]
  PM2 resistance (inhibition of p53 pull-down): appeared significantly resistant to PM2, with little or no reduction in their interaction with p53 in the presence of PM2
[24]
  PM2 resistance (inhibition of p53 pull-down): appeared significantly resistant to PM2, with little or no reduction in their interaction with p53 in the presence of PM2

## Nutlin [reference compound]
[1]; Nutlin 10 μM
  p53 activity: ~ 26%
[7]; Nutlin 10 μM
  effect of Nutlin on C8 function: had little effect in abrogating the function of C8
[15]
  rescue of p53 activity by Nutlin: no rescue observed
HDM2 M62A
  effect of M62A on Nutlin binding: shown to abrogate Nutlin binding
HDM2 L82P
  resistance of L82P to Nutlin binding: resistant to Nutlin binding at the cost of reduced p53 binding

## CC(C)(C)C[C@@H]1N[C@@H](C(=O)N[C@H]2CC[C@H](O)CC2)[C@H](c2cccc(Cl)c2F)[C@]12C(=O)Nc1cc(Cl)ccc12 [SAR405838]
[25]
  development of resistance: development of resistance to the Nutlin analogue SAR405838 was associated with a point-mutated p53 that still retained activity

B1: carboxyfluorescein (FAM) labelled 12-1 peptide (peptide)
peptide: {FAM}-RFMDYWEGL-NH2
notes: tracer peptide of the fluorescence anisotropy assay; also called the labelled peptide
[26]
  binding result: binds
[27]
  binding result: binds
